{"source": "patent US9918966B2", "about": "“Anti-cancer compositions and methods” (The Penn State Research Foundation, priority 2013, dated 2018)", "key": {"[1]": {"biological_target": "T1, Human recombinant COX-2 (Homo sapiens, UniProt P35354)", "T1 construct": "purchased Cayman Chemical, Ann Arbor, Mich", "T1 sequence (P35354 18-604)": "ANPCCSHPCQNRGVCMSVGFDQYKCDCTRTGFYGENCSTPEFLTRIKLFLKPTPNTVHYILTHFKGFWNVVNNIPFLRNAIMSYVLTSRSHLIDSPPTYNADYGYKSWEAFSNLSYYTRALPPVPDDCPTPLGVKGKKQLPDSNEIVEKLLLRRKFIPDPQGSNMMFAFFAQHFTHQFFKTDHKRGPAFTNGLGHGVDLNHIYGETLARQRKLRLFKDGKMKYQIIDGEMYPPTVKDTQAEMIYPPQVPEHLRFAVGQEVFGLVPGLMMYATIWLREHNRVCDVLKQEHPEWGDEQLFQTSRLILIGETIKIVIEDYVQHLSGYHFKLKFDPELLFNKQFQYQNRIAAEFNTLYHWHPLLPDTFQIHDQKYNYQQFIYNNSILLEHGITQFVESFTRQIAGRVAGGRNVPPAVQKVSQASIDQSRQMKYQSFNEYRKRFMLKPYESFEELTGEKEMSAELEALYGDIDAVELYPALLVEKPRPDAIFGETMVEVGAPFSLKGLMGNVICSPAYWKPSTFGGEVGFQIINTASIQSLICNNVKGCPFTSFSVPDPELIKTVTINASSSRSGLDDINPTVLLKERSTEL", "assay_type": "biochemical", "settings": "0.2, 2.0 and 20 nM; DMSO = 100% activity; FIG. 2C"}, "[2]": {"text": "Number of mice surviving and changes in body weight after 7 days of drug treatment is scored (Table I)."}, "[3]": {"system": "UACC 903 melanoma cells", "experiment": "Cell proliferation ELISA BrdU", "assay_type": "cell-based, human", "settings": "UACC 903, 72 h, increasing concentrations", "text": "(§1) Data represent averages of at least 3 independent experiments; bars; S.E.M.\n(§2) Percentage of proliferating and apoptotic cells are quantified by a colorimetric using cell proliferation ELISA BrdU kit (Roche Applied Sciences, Indianapolis, Ind.) and Apo-ONE Homogenous caspase-3/7 assay kit (Promega, Madison Wis.), as described in Sharma A, et al., Clin Cancer Res 2009; 15:1674-85; and Madhunapantula S V, et al., Mal Cancer Ther 2008; 7:1297-308."}, "[4]": {"system": "1205 Lu melanoma cells", "experiment": "Cell proliferation ELISA BrdU", "assay_type": "cell-based, human", "settings": "72 h, increasing concentrations", "text": "as §1, §2"}, "[5]": {"system": "UACC 903 melanoma cells", "experiment": "Cell cycle analysis, propidium iodide FACScan", "assay_type": "cell-based, human", "settings": "72 h", "method": "(§3) The effect of selenocoxib-1-GSH on cell cycle distribution is measured by analyzing propidium iodide stained 1205 Lu and UACC 903 cells using a BD FACScan. […] Total floating and adherent cells are collected following trypsinization and stained using a 1 mL propidium iodide solution containing 100 μg/mL propidium iodide; (Sigma, St Louis, Mo.), 20 μg/mL Ribonuclease A (Roche diagnostics, Indianapolis, Ind.) and 3 μg/mL Triton X-100 dissolved in 0.1% (W/V) sodium citrate for 30 m at 4° C.\n(§4) Selenocoxib-1-GSH treatment increases the sub-G0-G1 cell population, which is indicative of cellular apoptosis. […] Total floating and adherent cells are collected, and stained with propidium iodide to analyze the distribution of cells in different phases of the cell cycle stages using a FACScan analyzer. […] Data represents an average of 2 independent experiments."}, "[6]": {"system": "1205 Lu melanoma cells", "experiment": "Cell cycle analysis, propidium iodide FACScan", "assay_type": "cell-based, human", "settings": "72 h", "method": "as §3, §4"}, "[7]": {"system": "1205 Lu tumors", "assay_type": "in vivo, athymic-Foxn1nu nude mice", "method": "(§5) Tumor kinetics are measured by subcutaneous injection of 1×10^6 1205 Lu or UACC 903 cells in 0.2 mL of DMEM supplemented with 10% FBS subcutaneously injected above both left and right rib cages of 3- to 4-wk-old female athymic-Foxn1^nu nude mice (Harlan Sprague Dawley, IN)."}, "[8]": {"system": "UACC 903 tumors", "assay_type": "in vivo, athymic-Foxn1nu nude mice", "method": "as §5"}, "[9]": {"system": "various cancer cell lines", "experiment": "Killing of various cancer cell lines compared with normal fibroblast cells", "assay_type": "cell-based, human", "settings": "MiaPaca-2, MDA-MB-231, PC-3, HT-1080, Caco2 versus normal fibroblast cells", "text": "Therapeutic universality of selenocoxib-1-GSH for killing cancer cells is examined by treating pancreatic (MiaPaca-2), breast (MDA-MB-231), prostate (PC-3) or sarcoma (HT-1080) and colon (Caco2) cell. lines with the drug and establishing the IC50 for each cell line, Table III. Selenocoxib-1-GSH kills the various cancer cell lines at 2-3-fold lower concentrations than normal fibroblast cells."}, "[10]": {"system": "UACC 903 melanoma cells", "experiment": "Apo-ONE caspase-3/7 assay (apoptosis)", "assay_type": "cell-based, human", "text": "as §1"}, "[11]": {"system": "1205 Lu melanoma cells", "experiment": "Apo-ONE caspase-3/7 assay (apoptosis)", "assay_type": "cell-based, human", "settings": "72 h, dose dependent up to 25 μmol/L", "text": "as §1"}}, "note": "Where two headings read alike, the source gives them in different places.", "data": [{"smiles": "NC(CCC(=O)NC(CS[Se]Cc1cc(-c2ccccc2)n(-c2ccc(S(N)(=O)=O)cc2)n1)C(=O)NCC(=O)O)C(=O)O", "note": "(centres unmarked) [Selenocoxib-1-GSH, selenocoxib-1-glutathione]", "values": [{"measurement": "COX-2 inhibitory activity", "setting": "[1]", "result": "retain COX-2 inhibitory activity"}, {"measurement": "% of weight loss", "setting": "[2]; 0.127 μmoles (10 PPM) intraperitoneally daily for seven days", "result": "No loss"}, {"measurement": "Mortality at Day 7", "setting": "[2]; 0.127 μmoles intraperitoneally daily for seven days, 3 mice/group (Selenocoxib-1-GSH: 10 PPM)", "result": "0/3"}, {"measurement": "% of weight loss", "setting": "[2]; 0.254 μmoles (20 PPM) intraperitoneally daily for seven days", "result": 2.0, "unit": "%"}, {"measurement": "Mortality at Day 7", "setting": "[2]; 0.254 μmoles (20 PPM) intraperitoneally daily for seven days, 3 mice/group", "result": "0/3"}, {"measurement": "mortality", "setting": "[2]; 0.127 to 0.254, seven days", "result": "no mortality"}, {"measurement": "weight loss", "setting": "[2]; 0.127 to 0.254 moles (equivalent to 5 to 10 ppm of selenium), seven days", "result": "~2", "unit": "%"}, {"measurement": "cell proliferation (BrdU incorporation)", "setting": "[3]", "result": "reduces proliferation"}, {"measurement": "cell proliferation (BrdU incorporation)", "setting": "[4]", "result": "reduces proliferation"}, {"measurement": "increase of sub-G0-G1 population cells", "setting": "[5]; UACC 903, 25 μmol/L", "result": 4.7, "unit": "fold"}, {"measurement": "cell cycle progression", "setting": "[5]; UACC 903, 12.5 and 25 μmol/L", "result": "inhibits cell cycle progression"}, {"measurement": "increase of sub-G0-G1 population cells", "setting": "[6]; 25 μmol/L", "result": 6.2, "unit": "fold"}, {"measurement": "cell cycle progression", "setting": "[6]; 12.5 and 25 μmol/L", "result": "inhibits cell cycle progression"}, {"measurement": "day from which a significant decrease in xenograft tumor development is observed", "setting": "[7]; 1205 Lu tumors, compared to vehicle DMSO", "result": 16, "unit": "days"}, {"measurement": "decrease in tumor volume", "setting": "[7]; 1205 Lu, at the end of treatment, compared to controls", "result": "≤ 70", "unit": "%"}, {"measurement": "reduction of tumor development", "setting": "[7]; 1205 Lu, 0.127 μmoles (10 ppm selenium) intraperitoneally on alternate days for 4 weeks, compared to DMSO control", "result": 70.5, "unit": "%"}, {"measurement": "decrease in tumor volume", "setting": "[8]; UACC 903, at the end of treatment, compared to controls", "result": "≤ 70", "unit": "%"}, {"measurement": "reduction of tumor development", "setting": "[8]; UACC 903, 0.127 μmoles (10 ppm selenium) intraperitoneally on alternate days for 4 weeks, compared to DMSO control", "result": 52, "unit": "%"}, {"measurement": "day from which a significant decrease in xenograft tumor development is observed", "setting": "[8]; UACC 903 tumors, compared to vehicle DMSO", "result": 22, "unit": "days"}, {"measurement": "lower concentrations killing cancer cell lines than normal fibroblast cells", "setting": "[9]", "result": "2-3 fold"}, {"measurement": "caspase-3/7 activity", "setting": "[10]; UACC 903, 50 μmol/L, 72 h", "result": "significant decrease"}, {"measurement": "caspase-3/7 activity", "setting": "[10]; UACC 903, 72 h, dose dependent up to 25 μmol/L", "result": "increases caspase-3/7 activity"}, {"measurement": "caspase-3/7 activity", "setting": "[11]", "result": "increases caspase-3/7 activity"}]}]}
